Series [1] in a line: Cytotoxicity against human KBV cells assessed as decrease in cell survival rate at 10 uM measured after 72 hrs in presence of paclitaxel by MTT assay. In kind it is functional. Conditions: read-out: Survival.
Series [2] is described as follows: Cytotoxicity against human KBV cells assessed as decrease in cell survival rate at 10 uM measured after 72 hrs by MTT assay. Conditions: read-out: Survival. In kind it is functional. (Formazan colour is commonly taken as a measure of viable cells.)
Series [3] deals with ATP-dependent translocase ABCB1 (Homo sapiens, UniProt P08183). Nature of the series: Inhibition of P-glycoprotein mediated Rhodamine-123 efflux in human KBV cells assessed as increase in rhodamine-123 accumulation incubated for 3 hrs in presence of rhodamine-123 by flow cytometry analysis. It is filed as cell-based. Particulars: DDE = dose-dependent effect.
Chain of ATP-dependent translocase ABCB1 (P08183 whole entry): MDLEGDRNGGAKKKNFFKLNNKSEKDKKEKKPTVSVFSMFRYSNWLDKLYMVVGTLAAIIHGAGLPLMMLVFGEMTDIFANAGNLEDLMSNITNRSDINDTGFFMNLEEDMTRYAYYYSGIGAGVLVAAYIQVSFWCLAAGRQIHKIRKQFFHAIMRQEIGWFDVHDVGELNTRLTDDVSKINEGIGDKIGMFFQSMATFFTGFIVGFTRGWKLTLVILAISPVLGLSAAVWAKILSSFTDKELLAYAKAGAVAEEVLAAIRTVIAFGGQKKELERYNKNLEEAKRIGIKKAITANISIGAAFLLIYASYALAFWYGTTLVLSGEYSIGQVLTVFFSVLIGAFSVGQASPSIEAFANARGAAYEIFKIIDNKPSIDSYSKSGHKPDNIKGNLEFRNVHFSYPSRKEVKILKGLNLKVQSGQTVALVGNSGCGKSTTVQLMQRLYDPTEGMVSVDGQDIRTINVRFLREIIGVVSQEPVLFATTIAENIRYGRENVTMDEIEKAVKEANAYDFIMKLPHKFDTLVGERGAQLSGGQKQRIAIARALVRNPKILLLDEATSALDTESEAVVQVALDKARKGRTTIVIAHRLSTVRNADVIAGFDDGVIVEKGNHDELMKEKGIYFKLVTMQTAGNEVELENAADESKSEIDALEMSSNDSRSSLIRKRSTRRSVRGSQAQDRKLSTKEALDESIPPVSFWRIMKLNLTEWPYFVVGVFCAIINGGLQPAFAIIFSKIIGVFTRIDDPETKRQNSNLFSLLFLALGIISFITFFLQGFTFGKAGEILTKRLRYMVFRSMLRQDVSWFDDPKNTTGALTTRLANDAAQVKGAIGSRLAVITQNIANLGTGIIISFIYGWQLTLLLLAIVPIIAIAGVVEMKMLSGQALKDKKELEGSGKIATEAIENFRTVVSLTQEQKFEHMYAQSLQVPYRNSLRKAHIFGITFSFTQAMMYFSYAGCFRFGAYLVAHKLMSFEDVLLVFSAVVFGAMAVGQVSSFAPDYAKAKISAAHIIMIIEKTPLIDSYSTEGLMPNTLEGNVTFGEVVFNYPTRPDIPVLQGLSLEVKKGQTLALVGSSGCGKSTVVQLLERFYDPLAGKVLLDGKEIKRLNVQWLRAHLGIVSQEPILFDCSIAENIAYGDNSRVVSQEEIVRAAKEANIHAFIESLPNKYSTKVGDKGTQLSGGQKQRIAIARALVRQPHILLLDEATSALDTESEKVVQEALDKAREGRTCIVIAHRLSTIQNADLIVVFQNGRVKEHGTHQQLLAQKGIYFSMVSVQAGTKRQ
The subject of series [4] is KBV. Briefly: Induction of apoptosis in human KBV cells at 10 uM measured after 24 hrs in presence of paclitaxel by flow cytometry analysis. It is filed as functional, cell-based.
The subject of series [5] is KBV. Nature of the series: Induction of cell cycle arrest in human KBV cells assessed as accumulation at G2/M phase measured after 24 hrs by propidium iodide/RNase staining based flow cytometry analysis. In kind it is functional. (In general: Flow cytometry measures light scatter and fluorescence of single cells or particles in a stream.)
Series [6] can be described thus: Induction of cell cycle arrest in human KBV cells assessed as accumulation at sub-G0 phase measured after 24 hrs by propidium iodide/RNase staining based flow cytometry analysis (reference value: 6.18%). It is filed as functional.
A short description of series [7]: Antitumor activity against human KBV cells xenografted in BALB/c mouse assessed as tumor suppression rate at 10 mg/kg, ip qd administered in presence of paclitaxel. In kind it is functional.
Series [8] is described as follows: Toxicity in BALB/c mouse xenografted with human KBV cells assessed as change in body weight at 10 mg/kg, ip qd administered presence of paclitaxel. In kind it is organism-based. Conditions: in vivo. A general note: In xenograft studies the graft and the host belong to different species.
The nature of series [9]: Antitumor activity against human KBV cells xenografted in BALB/c mouse assessed as tumor suppression rate at 30 mg/kg administered once every three days. In kind it is functional.
A short description of series [10]: Cytotoxicity against human KBV cells assessed as decrease in cell survival rate at 100 nM measured after 72 hrs by MTT assay. In kind it is functional. Particulars: read-out: Survival.

Active and inactive are the calls of the source. The rule behind the calls is not given here.

Take `CC1(C)CC[C@]2(C(=O)OCc3cccc(Br)c3)CC[C@]3(C)C(=CC[C@@H]4[C@@]5(C)Cc6nccnc6[C@@](C)(CO)[C@@H]5CC[C@]43C)[C@@H]2C1`: the viability at 10 µM is 19.6% in series [1] and 39.8% in series [2].
As for `CC1(C)CC[C@]2(C(=O)O)CC[C@]3(C)C(=CC[C@@H]4[C@@]5(C)CC[C@H](O)[C@@](C)(CO)[C@@H]5CC[C@]43C)[C@@H]2C1` [HEDERAGENIN], the viability at 10 µM in series [1] was determined as 149%.
In the case of `CC1(C)CC[C@]2(C(=O)OCc3cccc(F)c3)CC[C@]3(C)C(=CC[C@@H]4[C@@]5(C)Cc6nccnc6[C@@](C)(CO)[C@@H]5CC[C@]43C)[C@@H]2C1`, the figures for the viability at 10 µM in [1] and in [2] were 35% and 110%, respectively.
With `CC1(C)CC[C@]2(C(=O)OCc3ccccc3)CC[C@]3(C)C(=CC[C@@H]4[C@@]5(C)Cc6cnoc6[C@@](C)(COC(=O)CCC(=O)N6CCCC6)[C@@H]5CC[C@]43C)[C@@H]2C1`, the viability at 10 µM in [1] came to 33.3%; in [2], 99.4%.
With `Cc1cccc(COC(=O)[C@]23CCC(C)(C)C[C@H]2C2=CC[C@@H]4[C@@]5(C)Cc6nccnc6[C@@](C)(CO)[C@@H]5CC[C@@]4(C)[C@]2(C)CC3)c1`, the values for the viability at 10 µM in series [1] and in series [2] were 32.8% and 124%, respectively.
For `CC1(C)CC[C@]2(C(=O)OCc3ccccc3)CC[C@]3(C)C(=CC[C@@H]4[C@@]5(C)Cc6cnoc6[C@@](C)(COC(=O)CCC(=O)n6cccn6)[C@@H]5CC[C@]43C)[C@@H]2C1` the same measures were 63.1% and 69.6%.
For `CC1(C)CC[C@]2(C(=O)OCc3ccc([N+](=O)[O-])cc3)CC[C@]3(C)C(=CC[C@@H]4[C@@]5(C)Cc6nccnc6[C@@](C)(CO)[C@@H]5CC[C@]43C)[C@@H]2C1` the same measures were 29.6% and 91.9%.
The corresponding values for `CC1(C)CC[C@]2(C(=O)OCc3ccc(Br)cc3)CC[C@]3(C)C(=CC[C@@H]4[C@@]5(C)Cc6nccnc6[C@@](C)(CO)[C@@H]5CC[C@]43C)[C@@H]2C1` are 34.2% and 109%.
As to `Cc1ccccc1COC(=O)[C@]12CCC(C)(C)C[C@H]1C1=CC[C@@H]3[C@@]4(C)Cc5nccnc5[C@@](C)(CO)[C@@H]4CC[C@@]3(C)[C@]1(C)CC2`, the viability at 10 µM in [1] worked out at 27.5%; in series [2] it was 99.7%.
For `CN1CCN(C(=O)CCC(=O)OC[C@]2(C)c3oncc3C[C@@]3(C)[C@H]2CC[C@]2(C)[C@@H]3CC=C3[C@@H]4CC(C)(C)CC[C@]4(C(=O)OCc4ccccc4)CC[C@]32C)CC1` the same measures were 32.5% and 79.7%.
Consider `CC1(C)CC[C@]2(C(=O)OCc3ccc(F)cc3)CC[C@]3(C)C(=CC[C@@H]4[C@@]5(C)Cc6nccnc6[C@@](C)(CO)[C@@H]5CC[C@]43C)[C@@H]2C1`, for which the viability at 10 µM turned out to be 83.3% in [1] and 94.9% in series [2].
For `CC1(C)CC[C@]2(C(=O)OCc3ccccc3)CC[C@]3(C)C(=CC[C@@H]4[C@@]5(C)Cc6cnoc6[C@@](C)(COC(=O)CCC(=O)n6ccnc6)[C@@H]5CC[C@]43C)[C@@H]2C1` the same measures were 48.6% and 96.9%.
As for `CC1(C)CC[C@]2(C(=O)OCc3ccccc3[N+](=O)[O-])CC[C@]3(C)C(=CC[C@@H]4[C@@]5(C)Cc6nccnc6[C@@](C)(CO)[C@@H]5CC[C@]43C)[C@@H]2C1`, the viability at 10 µM in series [1] stood at 27.1%; in series [2] it was 103%.
For `CC1(C)CC[C@]2(C(=O)OCc3ccccc3)CC[C@]3(C)C(=CC[C@@H]4[C@@]5(C)Cc6cnoc6[C@@](C)(COC(=O)CCC(=O)N6CCCCC6)[C@@H]5CC[C@]43C)[C@@H]2C1` the same measures were 79.2% and 80.5%.
The corresponding values for `CCOC(=O)c1noc2c1C[C@@]1(C)[C@@H](CC[C@]3(C)[C@@H]1CC=C1[C@@H]4CC(C)(C)CC[C@]4(C(=O)O)CC[C@]13C)[C@]2(C)CO` are 92.1% and 93.9%.
For `CCN1CCN(C(=O)CCC(=O)OC[C@]2(C)c3oncc3C[C@@]3(C)[C@H]2CC[C@]2(C)[C@@H]3CC=C3[C@@H]4CC(C)(C)CC[C@]4(C(=O)OCc4ccccc4)CC[C@]32C)CC1`, the “inhibition (INH)” value in series [3] is “Dde”. For the same compound, the viability at 10 µM in [1] was determined as 26.5%; in [2], 67.5%. Moreover, the outcome in the series with KBV [4] and with KBV [5] was Active. Moreover, the Activity in [6] is reported as 14.8%; in series [7], 56.24%; in [8], “Non-Toxic”.
As for `CC1(C)CC[C@]2(C(=O)OCc3ccccc3)CC[C@]3(C)C(=CC[C@@H]4[C@@]5(C)Cc6nccnc6[C@@](C)(CO)[C@@H]5CC[C@]43C)[C@@H]2C1`, in [1], the viability at 10 µM came to 25.3%.
As for `CC(=O)O[C@H]1C(=O)[C@@]2(C)[C@H]([C@H](OC(=O)c3ccccc3)[C@]3(O)C[C@H](OC(=O)[C@H](O)[C@@H](NC(=O)c4ccccc4)c4ccccc4)C(C)=C1C3(C)C)[C@]1(OC(C)=O)CO[C@@H]1C[C@@H]2O` [PACLITAXEL], the Activity in [9] stood at 22.63%. The viability at 0.1 µM in series [10] is 98.7%.
For `CC1(C)CC[C@]2(C(=O)OCc3ccccc3)CC[C@]3(C)C(=CC[C@@H]4[C@@]5(C)Cc6cnoc6[C@@](C)(COC(=O)CCC(=O)O)[C@@H]5CC[C@]43C)[C@@H]2C1`, the viability at 10 µM was determined as 16.6% in [1] and 34% in series [2].
As to `CC1(C)CC[C@]2(C(=O)OCc3ccccc3)CC[C@]3(C)C(=CC[C@@H]4[C@@]5(C)Cc6cnoc6[C@@](C)(CO)[C@@H]5CC[C@]43C)[C@@H]2C1`, the viability at 10 µM turned out to be 33.7% in series [1] and 140% in [2].
For the compound `CC1(C)CC[C@]2(C(=O)OCc3cccc(Cl)c3)CC[C@]3(C)C(=CC[C@@H]4[C@@]5(C)Cc6nccnc6[C@@](C)(CO)[C@@H]5CC[C@]43C)[C@@H]2C1`, the figures for the viability at 10 µM in series [1] and in [2] were 30.8% and 92%, respectively.
On to `CCOC(=O)c1noc2c1C[C@@]1(C)[C@@H](CC[C@]3(C)[C@@H]1CC=C1[C@@H]4CC(C)(C)CC[C@]4(C(=O)OCc4ccccc4)CC[C@]13C)[C@]2(C)CO`, for which the viability at 10 µM in series [1] was determined as 94.7%; in series [2] it was 102%.
The corresponding values for `CC1(C)CC[C@]2(C(=O)OCc3ccccc3F)CC[C@]3(C)C(=CC[C@@H]4[C@@]5(C)Cc6nccnc6[C@@](C)(CO)[C@@H]5CC[C@]43C)[C@@H]2C1` are 26.7% and 107%.
The corresponding values for `CC1(C)CC[C@]2(C(=O)OCc3ccccc3)CC[C@]3(C)C(=CC[C@@H]4[C@@]5(C)Cc6cnoc6[C@@](C)(COC(=O)CCC(=O)N6CCOCC6)[C@@H]5CC[C@]43C)[C@@H]2C1` are 34.1% and 89.6%.

The values are drawn from ChEMBL document CHEMBL5154762, “Design, synthesis, and tumor drug resistance reversal activity of novel hederagenin derivatives modified by nitrogen-containing heterocycles” (Eur J Med Chem, 2022).
